According to publication PMC3982195 (The FEBS journal, 2014):

What was measured:
[1] = biological target: T1, cytosolic nucleotidase II (LpcN-II) (Legionella pneumophila, UniProt Q5ZZB6); assay type: biochemical
[2] = biological target: T1, cytosolic nucleotidase II (LpcN-II); test: biochemical; assay type: binding
[3] = system: O=[N+]([O-])c1ccc(OP(=O)(O)O)cc1; test: purified protein
[4] = biological target: T1, cytosolic nucleotidase II (LpcN-II); assay type: biochemical; remark: listed apart in the source
[5] = biological target: T1, cytosolic nucleotidase II (LpcN-II); assay type: biochemical; remark: listed apart in the source

T1 sequence (Q5ZZB6 1-459 limits assumed): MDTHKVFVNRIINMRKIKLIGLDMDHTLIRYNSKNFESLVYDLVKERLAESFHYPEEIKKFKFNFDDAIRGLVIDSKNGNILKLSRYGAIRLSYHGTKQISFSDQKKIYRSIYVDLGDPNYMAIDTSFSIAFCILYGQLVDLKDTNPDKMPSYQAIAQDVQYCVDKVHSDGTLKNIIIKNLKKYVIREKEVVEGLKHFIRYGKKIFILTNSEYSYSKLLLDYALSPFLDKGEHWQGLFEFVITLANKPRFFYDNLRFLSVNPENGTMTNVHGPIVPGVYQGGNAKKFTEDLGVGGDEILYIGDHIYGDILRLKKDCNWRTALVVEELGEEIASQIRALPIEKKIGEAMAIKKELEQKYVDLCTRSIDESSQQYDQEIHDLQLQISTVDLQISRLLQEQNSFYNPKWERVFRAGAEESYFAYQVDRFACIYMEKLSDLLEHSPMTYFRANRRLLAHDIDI

Nc1nc2c(ncn2[C@H]2C[C@H](O)[C@@H](COP(=O)(O)OP(=O)(O)OP(=O)(O)O)O2)c(=O)[nH]1 [dGTP]
activation of pNPP hydrolysis by purified enzyme [1]: GTP, dGTP, and GDP showed activation of LpcN-II activity

Nc1nc2c(ncn2[C@@H]2O[C@H](COP(=O)(O)OP(=O)(O)OP(=O)(O)O)[C@@H](O)[C@H]2O)c(=O)[nH]1 [GTP]
Kd [2]: 4.1 ± 0.7 mM

cytosolic nucleotidase II (LpcN-II) (Legionella pneumophila subsp. pneumophila str. Philadelphia 1)
K0.5 [3]: 5.1 ± 0.9 mM
kcat/Km [3]: 0.1 M⁻¹ s⁻¹

O=c1[nH]cnc2c1ncn2[C@@H]1O[C@H](COP(=O)(O)OP(=O)(O)OP(=O)(O)O)[C@@H](O)[C@H]1O [ITP]
competitive reduction of GTP activation of pNPP hydrolysis [4]: indicate that IMP and ITP bind to the GTP-binding site

Nc1nc2c(ncn2[C@@H]2O[C@H](COP(=O)(O)OP(=O)(O)O)[C@@H](O)[C@H]2O)c(=O)[nH]1 [GDP]
activation of pNPP hydrolysis; competition with GTP [5]: GDP was also found to compete for binding to the GTP binding site
